Several values for one entry are separate records, joined by “and”; a condition that tells them apart may be missing. Equal values may be shown once.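 Tested at 5 concentrations; 48 h exposure; 96-well plates; endpoints linearly interpolated, else capped at highest concentration. GI50 marks 50% less growth. TGI: total growth inhibition.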

Assay in all cases: inhibition of tumour cell growth, NCI panel, 48 h
The subject of assay [1] is LOX IMVI melanoma.
Assay [2] relates to SK-OV-3 ovarian.
The subject of assay [3] is T-47D breast.
Assay [4] concerns NCI-H460 lung.
Assay [5] concerns KM12 colon.
The test system of assay [6] is MDA-MB-231 breast.
Assay [7] has as its system MALME-3M melanoma.
In assay [8] the test system is HL-60(TB) leukemia.
For assay [9], the system named is RXF 393 renal.
Assay [10] has as its system UACC-257 melanoma.

As to `C/C(=C\COc1c2c(cc3c1CCO3)OC1(C=C2)OC(CC/C(C)=C/COc2c3ccoc3cc3oc(=O)ccc23)C(C)(C)O1)CCC(O)C(C)(C)O` (centres undefined), the GI50 in [1] is 28.2 µM; in assay [2], more than 100 µM; in [3], 3.13 µM; in assay [4], 9.65 µM; in assay [5], 11.7 µM; in [6] it was 7.59 µM. In addition, the GI50 is 68.7 µM in assay [7], 3.61 µM in assay [8], 79.8 µM in assay [9] and 25.3 µM in [10]. The TGI in assay [1], in assay [2], in [3], in [4], in assay [5] and in [6] was more than 100 µM in each case. The TGI in assay [7] is more than 100 µM; in assay [8] it was 20.9 µM; in assay [9] it was more than 100 µM; in [10] it was more than 100 µM.

For the molecule `Cc1ccc(-c2nc(N3CCCNCC3)c3oc(-c4ccccc4)nc3n2)cc1`, the GI50 is 1.71 µM in assay [1]; 1.89 µM in assay [2]; 2.02 µM in [3]; 1.85 µM in assay [4]; 1.89 µM in assay [5]; 1.77 µM in assay [6]. Besides, the GI50 was 1.93 µM in assay [7], 1.35 µM in assay [8], 1.75 µM in assay [9] and 1.96 µM in assay [10]. Besides, the TGI in [1] came to 3.2 µM; in assay [2] it was 3.31 µM; in [3], 4 µM; in assay [4] it was 3.5 µM; in assay [5], 3.45 µM; in assay [6] it was 3.27 µM. The TGI in assay [7] came out at 3.48 µM; in assay [8], 3.17 µM; in assay [9], 3.29 µM; in assay [10] it was 3.48 µM.

For the molecule `O=C(NN=C1CCCCC1)c1[nH]c2ccc(F)cc2c1-c1ccccc1`, the GI50 in [1] is 25.2 µM; in [2], 35.1 µM; in [3], 46.8 µM; in [4], 22 µM; in assay [5], 44.7 µM; in assay [6] it was 49 µM. The GI50 in assay [7] was more than 100 µM; in [8], 18.2 µM; in [9], 98.5 µM; in assay [10] it was 59.1 µM. Further, the TGI in assay [1] was more than 100 µM; in assay [2] it was more than 100 µM; in assay [3], more than 100 µM; in assay [4] it was 50.8 µM; in assay [5], more than 100 µM; in assay [6] it was more than 100 µM. In addition, the TGI in [7] was more than 100 µM; in assay [8] it was 52.7 µM; in [9] it was more than 100 µM; in [10] it was more than 100 µM.

For `O=C(/C(=C/c1ccc([N+](=O)[O-])cc1)SCc1ccc(F)cc1)c1ccc(Cl)cc1`, the GI50 was 1.73 µM in [1]; 37.1 µM in [2]; 7 µM in assay [3]; 19 µM in [4]; 2.81 µM in assay [5]; 4.37 µM in assay [6]. Further, the GI50 was 10.1 µM in assay [7], 4.33 µM in [8], 15.5 µM in assay [9] and 16 µM in assay [10]. Also, the TGI is 3.27 µM in assay [1]; more than 100 µM in assay [2]; 26.2 µM in [3]; more than 100 µM in assay [4]; 8.63 µM in [5]; 23 µM in assay [6]. Moreover, the TGI was found to be 24.6 µM in assay [7], 40.4 µM in assay [8], 36.6 µM in [9] and 34.2 µM in assay [10].

On to `CCOC(=O)C(C)(C)C(O)C(C)C` (centres undefined), for which the TGI in assay [1], in [2], in assay [3], in assay [4], in assay [5] and in assay [6] was more than 100 µM in each case. The TGI in assay [7], in assay [8], in [9] and in [10] was more than 100 µM throughout.

Turning to `C[C@H]1[C@H]2[C@H]3CC[C@@H]4[C@@]5(C)C/C(=C/c6cccnc6)C(=O)C(C)(C)[C@@H]5CC[C@@]4(C)[C@]3(C)CC[C@]23CO[C@]1(C)[C@@H](C(=O)/C=C\c1cccnc1)C3`, the GI50 in [1] is 0.783 µM; in assay [2] it was 5.9 µM; in assay [3], 1.98 µM; in assay [4], 0.929 µM; in assay [5], 0.892 µM; in assay [6], 1.27 µM. In addition, the GI50 in [7] is 0.849 µM; in [8], 0.794 µM; in [9], 0.824 µM; in [10] it was 1.74 µM. Moreover, the TGI was 1.57 µM in assay [1]; more than 50 µM in [2]; more than 50 µM in assay [3]; 1.94 µM in assay [4]; 1.86 µM in assay [5]; 8.01 µM in [6]. Further, the TGI was determined as 1.91 µM in assay [7], 2.53 µM in assay [8], 1.56 µM in assay [9] and 9.85 µM in assay [10].

On to `O=c1c2c3c(sc2nc(N/N=C/c2ccc(Br)cc2)n1Cc1ccccc1)CCCC3`, for which the GI50 was 19.3 µM in assay [1]; more than 100 µM in assay [2]; 21.2 µM in assay [3]; 10.2 µM in assay [4]; more than 100 µM in assay [5]; 48 µM in [6]. For the same molecule, the GI50 in assay [7] was 42.7 µM; in assay [8], 9.26 µM; in assay [9] it was 5.98 µM; in assay [10], more than 100 µM. Besides, the TGI in assay [1], in [2], in [3], in assay [4], in assay [5] and in assay [6] was more than 100 µM in each case. The TGI in assay [7], in assay [8], in assay [9] and in assay [10] was more than 100 µM throughout.

For `CC1(C)CCC(C)(C)c2c1ccc(O)c2Cc1c(O)ccc2c1C(C)(C)CCC2(C)C`, the TGI in [1] was 3.39 µM; in assay [2] it was 4.84 µM; in assay [3], 3.8 µM; in [4], 5.77 µM; in assay [5] it was 3.91 µM; in assay [6], 3.22 µM. The TGI amounted to 6.6 µM in assay [7], 5.46 µM in assay [8], 3.47 µM in assay [9] and 3.45 µM in [10].

In the case of `CC(=O)Oc1cc2c(OC(C)=O)c(-c3c(C)cc4c(C(C)C)c(OC(C)=O)c(OC(C)=O)cc4c3OC(C)=O)c(C)cc2c(C(C)C)c1OC(C)=O`, the GI50 is 4.4 µM and 5.26 µM and 17.3 µM in [1]; 10.4 µM and 25.3 µM in [2]; > 100 µM and 10.2 µM and 19.1 µM in assay [3]; 6.16 µM and 6.95 µM and 11.6 µM in [4]; 4.83 µM and 5.02 µM and 9.12 µM in [5]; 0.67 µM and 1.58 µM and 3.63 µM in assay [6]. The GI50 in assay [7] was 5.49 µM and 5.36 µM and 9.03 µM; in [8], 13.1 µM and 3.07 µM and 4.8 µM; in assay [9] it was 14 µM and 16.3 µM and 4.05 µM; in assay [10] it was 5.23 µM and 2.58 µM and 8.39 µM. The TGI in [1] was 8.52 µM and 11.3 µM and 32 µM; in assay [2] it was > 39.3 µM and 34.1 µM and 55.8 µM; in assay [3], > 100 µM and > 25.2 µM and 36.1 µM; in [4], 15.3 µM and 17.5 µM and 32.3 µM; in assay [5], 10.6 µM and 10.2 µM and 21.3 µM; in assay [6], 2.08 µM and 7.6 µM and 12.4 µM. The TGI is 13.8 µM and 13.7 µM and 23.7 µM in [7]; 33.2 µM and 9.99 µM and 16.2 µM in assay [8]; 30.6 µM and 34.5 µM and 14.9 µM in assay [9]; 14.4 µM and 10.5 µM and 25.6 µM in [10].

On to `Cc1ncsc1-c1ccc(CNC(=O)[C@@H]2C[C@@H](O)CN2C(=O)[C@@H](NC(=O)C2(C#N)CC2)C(C)(C)C)cc1`, for which the GI50 in [1], in assay [2], in assay [3], in assay [4], in assay [5] and in assay [6] was more than 100 µM each time. In addition, the GI50 in assay [7], in [8], in assay [9] and in assay [10] was more than 100 µM throughout. Moreover, the TGI in assay [1], in assay [2], in assay [3], in assay [4], in assay [5] and in assay [6] was more than 100 µM in each case. In addition, the TGI in assay [7], in [8], in assay [9] and in [10] was more than 100 µM each time.

In the case of `COc1ccc(-c2c(-c3cc(OC)c(OC)c(OC)c3)noc2N)cc1`, the GI50 is less than 0.0141 µM in assay [1]; less than 0.011 µM in assay [2]; 9.91 µM in assay [3]; less than 0.015 µM in [4]; less than 0.01 µM in assay [5]; 0.06 µM in assay [6]. Besides, the GI50 in assay [7] is 13.4 µM; in [8], 0.0215 µM; in [9], less than 0.01 µM; in [10], less than 0.01 µM. For the same molecule, the TGI in assay [1] was more than 100 µM; in assay [2] it was 16.5 µM; in [3], more than 100 µM; in [4], more than 33.8 µM; in assay [5] it was more than 36.6 µM; in assay [6] it was 90.1 µM. In addition, the TGI in [7] is 56.8 µM; in [8], 0.0589 µM; in assay [9], 19.8 µM; in assay [10] it was more than 100 µM.

As to `COc1cnc2c(c1)C(=O)c1c-2n(CCCNC(C)C)c(=O)c2cc(F)ccc12`, the GI50 in assay [1] was 0.114 µM; in [2], 0.22 µM; in [3] it was 0.0846 µM; in [4], 0.042 µM; in assay [5], 0.165 µM; in [6], 0.402 µM. In addition, the GI50 was 0.197 µM in [7], 0.161 µM in assay [8], 0.23 µM in [9] and 0.47 µM in assay [10]. Further, the TGI in [1] was 0.249 µM; in assay [2], 0.707 µM; in assay [3] it was 0.651 µM; in assay [4], 0.175 µM; in [5], 0.851 µM; in assay [6], 1.57 µM. Besides, the TGI in assay [7] is 0.937 µM; in assay [8], 0.615 µM; in [9], 0.702 µM; in assay [10] it was 2.07 µM.

For `CCCCCCCCCCCCOC1C(C(CC(=O)N2CCN(c3cccc(C(F)(F)F)c3)CC2)NS(=O)(=O)c2cc(Cl)cc(Cl)c2)OC2OC(C)(C)OC21` (centres undefined), the GI50 in assay [1], in [2], in assay [3], in [4], in assay [5] and in assay [6] was more than 100 µM each time. In addition, the GI50 in assay [7], in assay [8], in assay [9] and in assay [10] was more than 100 µM in each case. The TGI in assay [1], in [2], in [3], in assay [4], in assay [5] and in [6] was more than 100 µM throughout. The TGI in assay [7], in [8], in assay [9] and in [10] was more than 100 µM in each case.

For `CCS(=O)(=O)Nc1cccc(Nc2c3cccc(C)c3nc3c(C)cccc23)c1OC`, the GI50 in assay [1] was 0.273 µM; in assay [2], 1.61 µM; in assay [3], 0.58 µM; in assay [4], 0.104 µM; in [5], 2.26 µM; in assay [6] it was 5.2 µM. For the same molecule, the GI50 in [7] was 0.901 µM; in assay [8] it was 0.25 µM; in assay [9], 1.98 µM; in assay [10] it was 2.46 µM. Also, the TGI is more than 91.5 µM in assay [1]; 29.7 µM in assay [2]; more than 30.4 µM in [3]; 4.6 µM in [4]; more than 31.2 µM in [5]; 41.4 µM in assay [6]. Also, the TGI is more than 47.4 µM in assay [7], 13.2 µM in [9] and 38.5 µM in [10].

In the case of `O=c1c2ccccc2c2ccccc2c(=O)n1Cc1ccc2c(c1)OCO2`, the TGI in assay [1], in assay [2], in [3], in [4], in [5] and in [6] was more than 100 µM in each case. The TGI in assay [7] was more than 100 µM; in [8] it was 52 µM; in [9] it was more than 84.2 µM; in assay [10], more than 100 µM.

Values taken from PubChem BioAssay (NCI).
